Assays:
[1] = system: caspase-3 and caspase-7 in SUM149 cells; assay: Caspase 3/7 activation (Caspase-Glo 3/7) in SUM149 tumor cells; type: cell-based; conditions: Homo sapiens, R=RLU at 20 μM/RLU at 0 μM, 24 h, read-out: Caspase 3/7 activation R (RLU fold increase from untreated cells)
Experimental: (§1) Human breast tumor SUM149 cells were plated in a 96 well plate at 10000 cells/100 μL at 37° C. in 5% CO2. Serial dilutions of drugs (compounds 1, 3 or 4) ranging from 20 μM to 300 nM were added at day 0. Active caspase-3 and caspase-7 were measured in triplicate after 24 h treatment by incubating 50 μL of the Caspase-Glo 3/7 reagent for 60 min at 25° C. This reagent containing the proluminescent tetrapeptide sequence DEVD in a cell lysis buffer (Promega) (FIG. 6).
(§2) Caspase 3/7 activation in SUM149 and L226 tumor cells was measured.
(§3) The calculated values R correspond to Relative Luminescence Units (RLU) fold increase from untreated cells (R=RLU at 20 μM/RLU at 0 μM).

[2] = system: caspase-3 and caspase-7 in MCF-10A cells; assay: Caspase 3/7 activation (Caspase-Glo 3/7) in MCF-10A normal cells; type: cell-based; conditions: Homo sapiens, R=RLU at 20 μM/RLU at 0 μM, 24 h, read-out: Caspase 3/7 activation R (RLU fold increase from untreated cells)
Experimental: as §1, with “normal mammary epithelial MCF-10A” for “breast tumor SUM149”, “9).” for “6).”
as §3
(§4) Caspase 3/7 activation in MCF-10A and HME-1 normal cells was also measured.

[3] = system: Human normal mammary epithelial HME-1 cells; assay: Effect on growth of normal cells (alamar blue), HME-1; type: cell-based; conditions: HME1, calculated on the basis of cell growth inhibition
Experimental: (§5) All biological experiments (Examples 2 to 9) have been performed with recommended cell line specific culture medium. For SUM149 and L226, culture medium is supplemented with 10% Fetal Calf Serum. For HME-1 and MCF-10A, culture medium is supplemented with 5% Horse Serum.
Human normal mammary epithelial HME-1 cells were plated in a 96 well plate at 3000 cells/100 μL at 37° C. in 5% CO2. Serial dilutions of drugs (compounds 1, 3 or 4) ranging from 20 μM to 300 nM were added at day 0 and day 3. The number of viable cells was determined in triplicate at day 5 by incubating 10 μL of the alamar blue staining solution for 2 hours at 37° C. (FIG. 4).
IC50 values of compounds 1-14 for the inhibition of MCF-10A and HME-1 normal cells growth were also measured (according to the experimental procedure of Examples 4 and 5): […]

[4] = system: tumors derived from MMTC-ErbB2/neu mice; assay: TUNEL assay of tumor apoptosis in MMTV-ErB2/Neu mice; type: in vivo; conditions: 100 mg/kg for 30 days
Experimental: DNA fragmentation in apoptotic cells was analyzed by the TUNEL assay (ApopTag detection kit, Millipore) as recommended by the manufacturer.
Briefly, 4 μm sections of paraffin-embedded fixed tissue from tumors derived from MMTC-ErbB2/neu mice treated with vehicle or with Compound 12, 4 or 8 (100 mg/kg) for 30 days, were deparaffined with successive histolemon and ethanol washes, then treated with 20 μg/mL proteinase K for 15 min at room temperature. Endogenous peroxidise was quenched with 3% hydrogen peroxide. […] Coloration was performed using the diaminobenzidine mixed substrate (Dako). Counterstaining was done with a solution of 1% methyl green for 5 min at room temperature. After distilled water and N-butanol washes, specimens were mounted in Pertex medium (CellPath). Observations were made using the Leica DMD108 digital microimaging device (Leica Microsystems GmbH).

[5] = system: Human breast tumor L226 cells; assay: Inhibition of tumor cell growth (alamar blue), L226; type: cell-based; conditions: 120 h, calculated on the basis of cell growth inhibition, day 5, alamar blue
Experimental: as §5
Human breast tumor L226 cells (Inflammatory Breast Cancer (IBC) of ERB-B2 subtype) were plated in a 96 well plate at 3000 cells/100 μL at 37° C. in 5% CO2. Serial dilutions of drugs (compounds 1, 3 or 4) ranging from 20 μM to 300 nM were added at day 0 and day 3. The number of viable cells was determined in triplicate at day 5 by incubating 10 μL of the alamar blue staining solution for 2 hours at 37° C. (FIG. 3).
IC50 values of compounds 1-14 for the inhibition of SUM149 and L226 tumor cells growth were measured (according to the experimental procedure of Examples 2 and 3): […]

[6] = system: caspase-3 and caspase-7 in L226 cells; assay: Caspase 3/7 activation (Caspase-Glo 3/7) in L226 tumor cells; type: cell-based; conditions: Homo sapiens, R=RLU at 20 μM/RLU at 0 μM, 24 h, read-out: Caspase 3/7 activation R (RLU fold increase from untreated cells)
Experimental: as §1, with “L226” for “SUM149”, “7).” for “6).”
as §2, §3

[7] = system: caspase-3 and caspase-7 in HME-1 cells; assay: Caspase 3/7 activation (Caspase-Glo 3/7) in HME-1 normal cells; type: cell-based; conditions: Homo sapiens, HME1, R=RLU at 20 μM/RLU at 0 μM, 24 h, read-out: Caspase 3/7 activation R (RLU fold increase from untreated cells)
Experimental: as §1, with “normal mammary epithelial HME-1” for “breast tumor SUM149”, “8).” for “6).”
as §3, §4

IC50 [5] [nM] | Structure (SMILES) | fold induction at 20 µM [1] | fold induction at 20 µM [2] | IC50 [3] [nM] | percentage of cells having TdT positive nuclei in tumors [4] [%] | fold induction at 20 µM [6] | fold induction at 20 µM [7]
2500 | Cc1cc(C)c(C)c(S(=O)(=O)N2CCSC(C)(C)[C@@H]2C(=O)NO)c1C [Compound 4, (3S)—N-hydroxy-4-[(2,3,5,6-tetramethylphenyl)sulfonyl]-2,2-dimethyl-3-thiomorpholine carboxamide] | 4.4 | 1 | > 20000 | 50 | 7.4 | 1
2000 | Cc1c(C)c(C)c(S(=O)(=O)N2CCSC(C)(C)[C@@H]2C(=O)NO)c(C)c1C [Compound 12, (3S)—N-hydroxy-4-[(2,3,4,5,6-pentamethylphenyl)sulfonyl]-2,2-dimethyl-3-thiomorpholine carboxamide] | 6.8 | 1.1 | > 20000 | 70 | 6.2 | 1.2
